Data reported in ChEMBL document CHEMBL5291721, “A preclinical secondary pharmacology resource illuminates target-adverse drug reaction associations of marketed drugs” (Nat Commun, 2023).

Columns and labels:
Motilin receptor = Motilin receptor (Homo sapiens, UniProt O43193)
[1] = target: T1, 5-hydroxytryptamine receptor 3A (Homo sapiens, UniProt P46098); format: functional
T1 sequence (P46098 whole entry): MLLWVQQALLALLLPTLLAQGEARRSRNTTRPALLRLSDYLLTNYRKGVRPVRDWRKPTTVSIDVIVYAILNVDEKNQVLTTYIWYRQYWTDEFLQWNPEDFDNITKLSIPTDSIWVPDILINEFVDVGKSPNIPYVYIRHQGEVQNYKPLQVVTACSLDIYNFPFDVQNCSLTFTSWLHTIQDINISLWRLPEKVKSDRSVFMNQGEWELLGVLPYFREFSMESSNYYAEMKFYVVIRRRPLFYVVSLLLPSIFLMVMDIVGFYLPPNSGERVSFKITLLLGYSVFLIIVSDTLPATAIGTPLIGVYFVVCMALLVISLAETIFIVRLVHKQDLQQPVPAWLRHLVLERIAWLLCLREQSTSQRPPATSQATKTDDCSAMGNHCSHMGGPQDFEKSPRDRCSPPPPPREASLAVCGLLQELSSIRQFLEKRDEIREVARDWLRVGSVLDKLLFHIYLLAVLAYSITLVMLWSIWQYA

[2] = target: T2, Neuropeptide Y receptor type 1 (Homo sapiens, UniProt P25929)
T2 sequence (P25929 whole entry): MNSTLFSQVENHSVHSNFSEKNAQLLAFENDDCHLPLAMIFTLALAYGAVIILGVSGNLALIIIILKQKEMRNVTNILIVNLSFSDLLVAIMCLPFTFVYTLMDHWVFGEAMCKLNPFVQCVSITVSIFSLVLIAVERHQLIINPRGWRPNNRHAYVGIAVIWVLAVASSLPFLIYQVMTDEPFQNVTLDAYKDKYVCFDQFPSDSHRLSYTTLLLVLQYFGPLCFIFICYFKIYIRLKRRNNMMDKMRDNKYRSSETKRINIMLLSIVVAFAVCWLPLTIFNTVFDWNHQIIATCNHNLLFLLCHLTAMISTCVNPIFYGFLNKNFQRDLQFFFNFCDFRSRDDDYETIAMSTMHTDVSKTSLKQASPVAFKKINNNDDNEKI

[3] = target: T3, 5-hydroxytryptamine receptor 1A (Homo sapiens, UniProt P08908); format: functional, cell-based
T3 sequence (P08908 whole entry): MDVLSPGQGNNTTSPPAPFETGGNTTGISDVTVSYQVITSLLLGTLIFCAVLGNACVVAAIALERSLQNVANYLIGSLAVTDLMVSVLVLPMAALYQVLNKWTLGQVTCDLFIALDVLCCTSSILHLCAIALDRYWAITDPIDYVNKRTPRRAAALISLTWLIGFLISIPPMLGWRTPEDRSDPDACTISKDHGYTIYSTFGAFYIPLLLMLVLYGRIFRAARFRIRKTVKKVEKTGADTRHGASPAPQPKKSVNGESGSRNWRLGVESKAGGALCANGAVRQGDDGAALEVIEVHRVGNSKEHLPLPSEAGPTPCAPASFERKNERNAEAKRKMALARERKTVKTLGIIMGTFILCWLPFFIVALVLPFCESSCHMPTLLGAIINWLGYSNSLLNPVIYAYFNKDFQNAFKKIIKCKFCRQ

Adenosine receptor A2a = Adenosine receptor A2a (Homo sapiens, UniProt P29274)
Adenosine receptor A2a, sequence (P29274 whole entry): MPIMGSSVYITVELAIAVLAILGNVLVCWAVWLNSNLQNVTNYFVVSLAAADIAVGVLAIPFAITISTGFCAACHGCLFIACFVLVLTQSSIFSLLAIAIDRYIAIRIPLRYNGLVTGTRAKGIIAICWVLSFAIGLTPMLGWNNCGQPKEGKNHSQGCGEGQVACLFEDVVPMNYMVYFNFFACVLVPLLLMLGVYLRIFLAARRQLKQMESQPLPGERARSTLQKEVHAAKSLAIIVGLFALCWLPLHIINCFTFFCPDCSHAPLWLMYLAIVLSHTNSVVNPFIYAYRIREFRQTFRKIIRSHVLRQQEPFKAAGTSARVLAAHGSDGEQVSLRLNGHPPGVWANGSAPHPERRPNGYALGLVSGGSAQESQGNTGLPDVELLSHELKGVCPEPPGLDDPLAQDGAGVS

[4] = target: 3',5'-cyclic-AMP phosphodiesterase 4D (Homo sapiens, UniProt Q08499); format: functional
3',5'-cyclic-AMP phosphodiesterase 4D, sequence (Q08499 whole entry): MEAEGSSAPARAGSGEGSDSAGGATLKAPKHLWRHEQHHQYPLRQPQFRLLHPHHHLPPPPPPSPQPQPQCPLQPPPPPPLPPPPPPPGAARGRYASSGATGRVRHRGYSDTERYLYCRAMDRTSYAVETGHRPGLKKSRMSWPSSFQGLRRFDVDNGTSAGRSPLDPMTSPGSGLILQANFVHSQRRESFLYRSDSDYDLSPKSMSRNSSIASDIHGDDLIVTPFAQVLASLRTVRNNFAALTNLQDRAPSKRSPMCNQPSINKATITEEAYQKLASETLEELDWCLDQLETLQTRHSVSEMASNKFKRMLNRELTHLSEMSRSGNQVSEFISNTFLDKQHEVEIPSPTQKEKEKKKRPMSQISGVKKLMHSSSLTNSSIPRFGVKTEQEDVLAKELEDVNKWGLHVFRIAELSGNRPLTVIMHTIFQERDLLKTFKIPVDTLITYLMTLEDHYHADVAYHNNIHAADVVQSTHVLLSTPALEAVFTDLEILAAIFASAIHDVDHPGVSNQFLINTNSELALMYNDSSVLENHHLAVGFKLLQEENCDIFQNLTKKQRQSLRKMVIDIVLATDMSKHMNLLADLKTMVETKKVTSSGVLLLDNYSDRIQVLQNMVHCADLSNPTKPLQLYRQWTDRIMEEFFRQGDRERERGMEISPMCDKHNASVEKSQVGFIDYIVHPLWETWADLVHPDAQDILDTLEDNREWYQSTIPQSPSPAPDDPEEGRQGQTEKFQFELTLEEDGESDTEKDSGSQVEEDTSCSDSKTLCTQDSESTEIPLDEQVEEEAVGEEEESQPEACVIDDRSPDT

D(3) dopamine receptor = D(3) dopamine receptor (Homo sapiens, UniProt P35462)
D(3) dopamine receptor, sequence (P35462 whole entry): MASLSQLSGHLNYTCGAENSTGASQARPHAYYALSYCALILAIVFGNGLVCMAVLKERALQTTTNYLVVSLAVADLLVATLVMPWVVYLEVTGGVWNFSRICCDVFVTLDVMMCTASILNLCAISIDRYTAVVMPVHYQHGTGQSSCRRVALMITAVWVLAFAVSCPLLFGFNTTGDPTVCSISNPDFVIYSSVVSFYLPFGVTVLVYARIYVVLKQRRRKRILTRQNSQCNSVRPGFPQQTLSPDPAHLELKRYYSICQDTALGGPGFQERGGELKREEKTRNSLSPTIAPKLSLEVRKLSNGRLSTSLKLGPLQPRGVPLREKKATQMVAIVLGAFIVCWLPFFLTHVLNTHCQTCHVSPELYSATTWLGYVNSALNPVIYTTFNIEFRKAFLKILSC

[5] = target: T4, Alpha-2C adrenergic receptor (Homo sapiens, UniProt P18825); format: functional
T4 sequence (P18825 whole entry): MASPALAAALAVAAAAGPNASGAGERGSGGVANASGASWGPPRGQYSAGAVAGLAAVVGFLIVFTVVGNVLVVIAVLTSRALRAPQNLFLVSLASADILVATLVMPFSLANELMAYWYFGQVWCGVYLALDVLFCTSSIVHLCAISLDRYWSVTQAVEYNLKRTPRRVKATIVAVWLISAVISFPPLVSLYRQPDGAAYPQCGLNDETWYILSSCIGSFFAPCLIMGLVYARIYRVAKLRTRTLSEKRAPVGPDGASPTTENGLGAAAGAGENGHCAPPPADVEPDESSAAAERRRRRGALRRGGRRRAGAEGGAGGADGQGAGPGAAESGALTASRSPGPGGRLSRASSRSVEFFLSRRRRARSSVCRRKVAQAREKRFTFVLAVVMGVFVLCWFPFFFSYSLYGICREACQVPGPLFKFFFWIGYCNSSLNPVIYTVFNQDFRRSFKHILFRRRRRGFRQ

[6] = target: T5, 5-hydroxytryptamine receptor 2B (Homo sapiens, UniProt P41595); format: functional, cell-based
T5 sequence (P41595 whole entry): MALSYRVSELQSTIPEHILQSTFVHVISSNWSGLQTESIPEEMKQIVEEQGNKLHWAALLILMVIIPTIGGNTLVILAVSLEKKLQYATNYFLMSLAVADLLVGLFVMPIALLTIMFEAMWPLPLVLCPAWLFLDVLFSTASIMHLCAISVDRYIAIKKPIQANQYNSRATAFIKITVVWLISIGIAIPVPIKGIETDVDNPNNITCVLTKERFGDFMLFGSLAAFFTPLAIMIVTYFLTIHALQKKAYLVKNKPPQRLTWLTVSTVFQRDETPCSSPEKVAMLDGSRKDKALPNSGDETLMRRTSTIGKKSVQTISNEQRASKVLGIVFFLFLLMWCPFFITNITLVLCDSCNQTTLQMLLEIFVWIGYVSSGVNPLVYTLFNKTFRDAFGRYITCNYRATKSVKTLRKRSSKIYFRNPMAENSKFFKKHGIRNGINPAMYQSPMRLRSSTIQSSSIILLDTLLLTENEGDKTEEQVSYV

[7] = target: T5, 5-hydroxytryptamine receptor 2B; format: functional, cell-based; remark: listed apart in the source
[8] = target: T6, Type-1 angiotensin II receptor (Homo sapiens, UniProt P30556)
T6 sequence (P30556 whole entry): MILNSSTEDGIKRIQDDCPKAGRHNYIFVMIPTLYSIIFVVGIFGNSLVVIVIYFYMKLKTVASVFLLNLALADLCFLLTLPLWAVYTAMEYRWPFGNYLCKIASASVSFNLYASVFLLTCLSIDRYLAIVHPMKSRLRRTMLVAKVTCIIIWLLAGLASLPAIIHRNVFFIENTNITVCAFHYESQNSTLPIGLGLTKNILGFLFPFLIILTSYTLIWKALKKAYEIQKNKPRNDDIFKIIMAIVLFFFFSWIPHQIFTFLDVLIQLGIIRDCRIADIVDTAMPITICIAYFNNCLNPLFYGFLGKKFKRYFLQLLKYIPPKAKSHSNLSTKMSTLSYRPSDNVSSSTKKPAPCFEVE

Thromboxane A2 receptor = target: T7, Thromboxane A2 receptor (Homo sapiens, UniProt P21731)
T7 sequence (P21731 whole entry): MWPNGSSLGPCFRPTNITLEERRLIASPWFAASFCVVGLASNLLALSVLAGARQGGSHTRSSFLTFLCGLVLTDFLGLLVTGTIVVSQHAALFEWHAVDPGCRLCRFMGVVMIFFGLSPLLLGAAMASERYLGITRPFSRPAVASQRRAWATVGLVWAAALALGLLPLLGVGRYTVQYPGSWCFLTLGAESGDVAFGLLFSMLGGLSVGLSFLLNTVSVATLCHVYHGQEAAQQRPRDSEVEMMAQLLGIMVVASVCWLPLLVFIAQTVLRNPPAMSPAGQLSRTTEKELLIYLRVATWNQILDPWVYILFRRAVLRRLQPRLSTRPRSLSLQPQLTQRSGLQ

[9] = target: Vascular endothelial growth factor receptor 2 (Homo sapiens, UniProt P35968); format: functional
Vascular endothelial growth factor receptor 2, sequence (P35968 whole entry): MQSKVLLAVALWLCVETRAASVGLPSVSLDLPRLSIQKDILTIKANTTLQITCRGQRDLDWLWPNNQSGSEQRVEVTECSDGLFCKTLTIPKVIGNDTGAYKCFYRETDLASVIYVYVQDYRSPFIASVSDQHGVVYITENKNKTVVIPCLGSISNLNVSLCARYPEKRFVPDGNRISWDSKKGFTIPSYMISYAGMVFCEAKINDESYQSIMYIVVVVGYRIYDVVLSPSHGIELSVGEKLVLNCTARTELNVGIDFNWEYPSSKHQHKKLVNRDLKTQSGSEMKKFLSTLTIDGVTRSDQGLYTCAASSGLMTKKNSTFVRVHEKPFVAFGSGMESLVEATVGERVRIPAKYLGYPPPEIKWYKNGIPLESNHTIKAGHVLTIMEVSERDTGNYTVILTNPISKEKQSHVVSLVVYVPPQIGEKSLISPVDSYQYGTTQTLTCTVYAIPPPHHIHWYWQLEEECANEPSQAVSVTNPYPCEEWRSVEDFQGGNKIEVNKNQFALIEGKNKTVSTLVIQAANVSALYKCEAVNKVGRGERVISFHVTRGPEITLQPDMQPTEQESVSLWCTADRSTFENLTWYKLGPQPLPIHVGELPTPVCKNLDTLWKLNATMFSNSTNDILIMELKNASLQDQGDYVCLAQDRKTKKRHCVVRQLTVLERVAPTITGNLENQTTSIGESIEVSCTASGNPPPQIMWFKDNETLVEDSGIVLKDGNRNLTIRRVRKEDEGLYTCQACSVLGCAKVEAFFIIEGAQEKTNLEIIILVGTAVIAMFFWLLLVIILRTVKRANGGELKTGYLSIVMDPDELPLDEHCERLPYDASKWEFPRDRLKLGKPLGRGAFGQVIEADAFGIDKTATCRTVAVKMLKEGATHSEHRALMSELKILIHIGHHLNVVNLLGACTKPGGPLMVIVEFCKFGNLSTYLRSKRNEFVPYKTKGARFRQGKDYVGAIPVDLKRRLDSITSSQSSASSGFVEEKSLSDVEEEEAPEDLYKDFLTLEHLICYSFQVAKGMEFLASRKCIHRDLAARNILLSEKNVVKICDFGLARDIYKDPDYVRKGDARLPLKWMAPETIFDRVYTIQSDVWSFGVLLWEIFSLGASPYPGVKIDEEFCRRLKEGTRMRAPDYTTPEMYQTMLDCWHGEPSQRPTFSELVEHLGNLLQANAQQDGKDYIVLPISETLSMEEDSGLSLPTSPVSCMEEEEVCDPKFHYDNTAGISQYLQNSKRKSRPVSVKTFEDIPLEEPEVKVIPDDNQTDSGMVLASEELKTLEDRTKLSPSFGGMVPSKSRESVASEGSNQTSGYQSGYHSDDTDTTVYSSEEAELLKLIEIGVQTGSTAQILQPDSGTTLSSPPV
Further: assay procedure not described here.

Motilin receptor, sequence (O43193 whole entry): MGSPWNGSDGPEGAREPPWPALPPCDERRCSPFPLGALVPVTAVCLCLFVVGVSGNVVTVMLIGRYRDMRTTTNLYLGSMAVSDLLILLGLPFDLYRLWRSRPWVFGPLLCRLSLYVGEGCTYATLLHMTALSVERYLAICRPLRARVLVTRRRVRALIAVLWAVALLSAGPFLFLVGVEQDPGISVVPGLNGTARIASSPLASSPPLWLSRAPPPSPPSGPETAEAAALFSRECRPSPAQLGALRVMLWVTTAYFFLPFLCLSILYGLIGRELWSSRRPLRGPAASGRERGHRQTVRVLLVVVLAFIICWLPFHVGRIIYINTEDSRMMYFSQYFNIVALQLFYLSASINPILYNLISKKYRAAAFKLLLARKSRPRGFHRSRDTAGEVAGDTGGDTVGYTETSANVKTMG

CCn1cc(C(=O)O)c(=O)c2cc(F)c(N3CCNCC3)nc21 [ENOXACIN]
AC50 (Motilin receptor): > 10 µM
AC50 [1]: > 10 µM
AC50 [2]: > 30 µM
AC50 [3]: > 10 µM
AC50 (Adenosine receptor A2a): > 30 µM
AC50 [4]: > 10 µM
AC50 (D(3) dopamine receptor): > 10 µM
AC50 [5]: > 10 µM
AC50 [6]: > 10 µM
AC50 [7]: > 10 µM
AC50 [8]: > 30 µM
AC50 (Thromboxane A2 receptor): 6.06 µM
AC50 [9]: > 30 µM

CNC(=O)Oc1ccc2c(c1)[C@]1(C)CCN(C)[C@@H]1N2C [PHYSOSTIGMINE]
AC50 (Motilin receptor): > 30 µM
AC50 [1]: > 30 µM
AC50 [2]: > 30 µM
AC50 [3]: > 30 µM
AC50 (Adenosine receptor A2a): > 30 µM
AC50 [4]: > 30 µM
AC50 (D(3) dopamine receptor): > 30 µM
AC50 [5]: > 30 µM
AC50 [6]: > 30 µM
AC50 [7]: > 30 µM
AC50 [8]: > 30 µM
AC50 (Thromboxane A2 receptor): > 30 µM
AC50 [9]: > 30 µM
